Experiments:
viable cells in culture = experiment: Cell viability assay (CellTiter-Glo Luminescent Cell Viability Assay, ATP quantitation, percent of vehicle control)
[1] = test system: human TERT expression (hTERT mRNA); experiment: Quantitative real-time RT-PCR of hTERT mRNA expression (Ct, transcripts) in compound-treated cells; format: cell-based; conditions: quantitative real-time RT-PCR
How it was run: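 Read-out is cycle threshold, the cycle at which probe fluorescence released by Taq 5′-nuclease activity crosses a set level; Ct falls as hTERT mRNA rises. cDNA of treated and untreated cells was compared, with starting transcripts quantified against a known-cDNA standard curve.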

O=C(N/N=C/C=C/c1ccccc1)c1ccccc1O [compound 1268]
Average Cell Viability after 24 Hours (% DMSO) (viable cells in culture): 80.84 % DMSO | Average Number of hTERT Transcripts [1]: 14.70

O=C(N/N=C/c1cc(Br)ccc1O)c1cc2ccccc2cc1O [compound 1269]
Average Cell Viability after 24 Hours (% DMSO) (viable cells in culture): 68.44 % DMSO | Average Number of hTERT Transcripts [1]: 93.93

CC(C)(C)c1ccc(C(=O)N/N=C/c2c(O)ccc3ccccc23)cc1 [compound 1270]
Average Cell Viability after 24 Hours (% DMSO) (viable cells in culture): 59.66 % DMSO | Average Number of hTERT Transcripts [1]: 34.64

Oc1c(Br)cc(Br)cc1/C=N/Nc1ccccn1 [compound 1271]
Average Cell Viability after 24 Hours (% DMSO) (viable cells in culture): 57.70 % DMSO | Average Number of hTERT Transcripts [1]: 38.63

Cn1cc(C(=O)N/N=C/c2c(O)ccc3ccccc23)ccc1=O [compound 1272]
Average Cell Viability after 24 Hours (% DMSO) (viable cells in culture): 57.10 % DMSO | Average Number of hTERT Transcripts [1]: 33.61

Cc1ccc(NCC(=O)N/N=C\c2cc(Br)cc(Br)c2O)cc1 [compound 1273]
Average Cell Viability after 24 Hours (% DMSO) (viable cells in culture): 75.55 % DMSO | Average Number of hTERT Transcripts [1]: 40.65

O=C(N/N=C/c1cc(Br)cc(I)c1O)c1ccccn1 [compound 1274]
Average Cell Viability after 24 Hours (% DMSO) (viable cells in culture): 75.52 % DMSO | Average Number of hTERT Transcripts [1]: 20.59

C/C(=N\NC(=O)Cc1ccc(Cl)cc1)c1ccccn1 [compound 1275]
Average Cell Viability after 24 Hours (% DMSO) (viable cells in culture): 71.98 % DMSO | Average Number of hTERT Transcripts [1]: 127.83

O=C(NNC1=C(C(=O)C(F)(F)F)CCC1)c1ccc(Br)cc1 [compound 1276]
Average Cell Viability after 24 Hours (% DMSO) (viable cells in culture): 92.70 % DMSO | Average Number of hTERT Transcripts [1]: 9.73

Cc1occc1C(=O)N/N=C/c1cc(I)cc(I)c1O [compound 1277]
Average Cell Viability after 24 Hours (% DMSO) (viable cells in culture): 68.53 % DMSO | Average Number of hTERT Transcripts [1]: 24.11

O=C(Cc1ccccc1)NNC1=C(C(=O)C(F)(F)F)CCC1 [compound 1278]
Average Cell Viability after 24 Hours (% DMSO) (viable cells in culture): 74.57 % DMSO | Average Number of hTERT Transcripts [1]: 35.46

COc1cccc(C=NNC(=O)C(C)Nc2cccc3ccccc23)c1O (centres unmarked) [compound 1279]
Average Cell Viability after 24 Hours (% DMSO) (viable cells in culture): 63.90 % DMSO | Average Number of hTERT Transcripts [1]: 25.71

Cc1cc(C(=O)N/N=C/c2cc(Br)ccc2O)c(C)o1 [compound 1280]
Average Cell Viability after 24 Hours (% DMSO) (viable cells in culture): 59.52 % DMSO | Average Number of hTERT Transcripts [1]: 9.80

CCC(Nc1ccc(Br)cc1)C(=O)N/N=C/c1c(O)ccc2ccccc12 (centres unmarked) [compound 1281]
Average Cell Viability after 24 Hours (% DMSO) (viable cells in culture): 56.81 % DMSO | Average Number of hTERT Transcripts [1]: 8.35

Cc1cc(C(=O)N/N=C/c2ccccc2O)c(C)o1 [compound 1282]
Average Cell Viability after 24 Hours (% DMSO) (viable cells in culture): 68.67 % DMSO | Average Number of hTERT Transcripts [1]: 27.61

O=C(N/N=C/c1cccc2cccnc12)c1ccc2c(c1)OCO2 [compound 1283]
Average Cell Viability after 24 Hours (% DMSO) (viable cells in culture): 68.25 % DMSO | Average Number of hTERT Transcripts [1]: 18.81

CC(Oc1cccc2ccccc12)C(=O)NN=Cc1cccc2cccnc12 (centres unmarked) [compound 1284]
Average Cell Viability after 24 Hours (% DMSO) (viable cells in culture): 73.23 % DMSO | Average Number of hTERT Transcripts [1]: 44.70

O=c1cnnc(N/N=C/c2ccccn2)[nH]1 [compound 1285]
Average Cell Viability after 24 Hours (% DMSO) (viable cells in culture): 65.50 % DMSO | Average Number of hTERT Transcripts [1]: 97.75

O=C(Cc1ccccc1)N/N=C/c1cccc2cccnc12 [compound 1286]
Average Cell Viability after 24 Hours (% DMSO) (viable cells in culture): 75.11 % DMSO | Average Number of hTERT Transcripts [1]: 29.62

O=C(COc1ccc(F)cc1)N/N=C/c1cccc2cccnc12 [compound 1287]
Average Cell Viability after 24 Hours (% DMSO) (viable cells in culture): 67.01 % DMSO | Average Number of hTERT Transcripts [1]: 12.08

COc1ccccc1OCC(=O)N/N=C/c1cccc2cccnc12 [compound 1288]
Average Cell Viability after 24 Hours (% DMSO) (viable cells in culture): 78.28 % DMSO | Average Number of hTERT Transcripts [1]: 18.81

COc1ccc(OCC(=O)N/N=C/c2cccc3cccnc23)cc1 [compound 1289]
Average Cell Viability after 24 Hours (% DMSO) (viable cells in culture): 84.79 % DMSO | Average Number of hTERT Transcripts [1]: 21.50

O=C(COc1ccc(Cl)cc1)N/N=C/c1cccc2cccnc12 [compound 1290]
Average Cell Viability after 24 Hours (% DMSO) (viable cells in culture): 62.81 % DMSO | Average Number of hTERT Transcripts [1]: 9.13

CC(Oc1cccc2cccnc12)C(=O)N/N=C/c1cccc2cccnc12 (centres unmarked) [compound 1291]
Average Cell Viability after 24 Hours (% DMSO) (viable cells in culture): 77.64 % DMSO | Average Number of hTERT Transcripts [1]: 47.89

Cn1c(SCC(=O)N/N=C/c2sc3ccccc3c2O)nc2ccccc21 [compound 1292]
Average Cell Viability after 24 Hours (% DMSO) (viable cells in culture): 69.51 % DMSO | Average Number of hTERT Transcripts [1]: 39.11

O=C(N/N=C/c1ccccc1O)/C(=C\c1cccs1)NC(=O)c1ccccc1 [compound 1293]
Average Cell Viability after 24 Hours (% DMSO) (viable cells in culture): 89.97 % DMSO | Average Number of hTERT Transcripts [1]: 37.88

CCCCCC(=O)N/N=C(/C)c1ccccn1 [compound 1294]
Average Cell Viability after 24 Hours (% DMSO) (viable cells in culture): 74.63 % DMSO | Average Number of hTERT Transcripts [1]: 105.99

Cc1cc(NC(=O)C2c3ccccc3Oc3ccccc32)n(-c2nc(C)c(C)c(=O)[nH]2)n1 [compound 1295]
Average Cell Viability after 24 Hours (% DMSO) (viable cells in culture): 66.62 % DMSO | Average Number of hTERT Transcripts [1]: 45.40

CCc1c(C)nc(-n2nc(C)cc2NC(=O)C2c3ccccc3Oc3ccccc32)[nH]c1=O [compound 1296]
Average Cell Viability after 24 Hours (% DMSO) (viable cells in culture): 73.20 % DMSO | Average Number of hTERT Transcripts [1]: 60.31

CCOC(=O)c1nn(-c2ccccc2)c(=O)c2c(NC(=O)c3ccc4c(c3)OCO4)scc12 [compound 1298]
Average Cell Viability after 24 Hours (% DMSO) (viable cells in culture): 101.83 % DMSO | Average Number of hTERT Transcripts [1]: 8.68

CCOC(=O)c1nn(-c2ccccc2)c(=O)c2c(NC(=O)c3c(F)cccc3Cl)scc12 [compound 1299]
Average Cell Viability after 24 Hours (% DMSO) (viable cells in culture): 69.64 % DMSO | Average Number of hTERT Transcripts [1]: 2.95

CCOC(=O)c1nn(-c2ccc(Cl)cc2)c(=O)c2c(NC(=O)c3ccc(F)cc3)scc12 [compound 1300]
Average Cell Viability after 24 Hours (% DMSO) (viable cells in culture): 62.52 % DMSO | Average Number of hTERT Transcripts [1]: 6.98

O=C(Nc1ccc(Cl)c(Cl)c1)Nc1nnc(CSc2ccccc2)s1 [compound 1301]
Average Cell Viability after 24 Hours (% DMSO) (viable cells in culture): 63.90 % DMSO | Average Number of hTERT Transcripts [1]: 65.14

COC(=O)CSc1nnc(NC(=O)c2ccc(Cl)cc2)s1 [compound 1302]
Average Cell Viability after 24 Hours (% DMSO) (viable cells in culture): 70.75 % DMSO | Average Number of hTERT Transcripts [1]: 41.43

CCC(=O)Nc1nnc(SCc2cc(=O)c3cccc(Cl)c3[nH]2)s1 [compound 1303]
Average Cell Viability after 24 Hours (% DMSO) (viable cells in culture): 80.90 % DMSO | Average Number of hTERT Transcripts [1]: 4.51

c1ccc(-c2c(-c3ccccc3)n(Cc3ccco3)c3ncn4nc(-c5ccncc5)nc4c23)cc1 [compound 1304]
Average Cell Viability after 24 Hours (% DMSO) (viable cells in culture): 89.74 % DMSO | Average Number of hTERT Transcripts [1]: 59.37

CCOC(=O)c1cc2ccc(OC(=O)COc3ccc(C)cc3)cc2oc1=O [compound 1307]
Average Cell Viability after 24 Hours (% DMSO) (viable cells in culture): 80.83 % DMSO | Average Number of hTERT Transcripts [1]: 8.66

CCOC(=O)COc1ccc2c(C)cc(=O)oc2c1C [compound 1308]
Average Cell Viability after 24 Hours (% DMSO) (viable cells in culture): 90.12 % DMSO | Average Number of hTERT Transcripts [1]: 3.16

CN(C(=O)c1cc2ccccc2oc1=O)C1(C)CCS(=O)(=O)C1 (centres unmarked) [compound 1309]
Average Cell Viability after 24 Hours (% DMSO) (viable cells in culture): 119.29 % DMSO | Average Number of hTERT Transcripts [1]: 10.58

CCc1cc(=O)oc2c(C)c(OC(=O)c3ccccc3)ccc12 [compound 1310]
Average Cell Viability after 24 Hours (% DMSO) (viable cells in culture): 105.11 % DMSO | Average Number of hTERT Transcripts [1]: 5.00

COc1cc([N+](=O)[O-])cc2cc(C(=O)NCCCN3CCOCC3)c(=O)oc12 [compound 1311]
Average Cell Viability after 24 Hours (% DMSO) (viable cells in culture): 92.83 % DMSO | Average Number of hTERT Transcripts [1]: 4.38

Cc1noc(-c2cc(Br)cc(Br)c2O)n1 [compound 1312]
Average Cell Viability after 24 Hours (% DMSO) (viable cells in culture): 67.76 % DMSO | Average Number of hTERT Transcripts [1]: 51.29

O=C1CC(N2CCN(Cc3ccc(Cl)cc3)CC2)C(=O)N1c1ccccc1 (centres unmarked) [compound 1313]
Average Cell Viability after 24 Hours (% DMSO) (viable cells in culture): 112.79 % DMSO | Average Number of hTERT Transcripts [1]: 7.45

Cc1sc(CO)c(Sc2ccccc2)c1C(=O)O [compound 1314]
Average Cell Viability after 24 Hours (% DMSO) (viable cells in culture): 109.57 % DMSO | Average Number of hTERT Transcripts [1]: 8.82

CC1CCc2c(sc(NC(=O)c3cccnc3)c2C(=O)Nc2cccc(Cl)c2)C1 (centres unmarked) [compound 1315]
Average Cell Viability after 24 Hours (% DMSO) (viable cells in culture): 58.86 % DMSO | Average Number of hTERT Transcripts [1]: 26.20

O=C(Nc1nccs1)c1sc2ccccc2c1Cl [compound 1316]
Average Cell Viability after 24 Hours (% DMSO) (viable cells in culture): 73.91 % DMSO | Average Number of hTERT Transcripts [1]: 13.39

Nc1c(C(=O)Nc2ccc(Cl)c(Cl)c2)sc2nc3c(cc12)CCCC3 [compound 1317]
Average Cell Viability after 24 Hours (% DMSO) (viable cells in culture): 88.17 % DMSO | Average Number of hTERT Transcripts [1]: 10.56

CC(=O)Oc1ccccc1C(=O)Nc1ccc(F)cc1F [compound 1318]
Average Cell Viability after 24 Hours (% DMSO) (viable cells in culture): 59.35 % DMSO | Average Number of hTERT Transcripts [1]: 13.40

CC1=NN(C(=O)c2cc(Br)ccc2O)C(O)(c2ccccc2)C1 (centres unmarked) [compound 1319]
Average Cell Viability after 24 Hours (% DMSO) (viable cells in culture): 61.93 % DMSO | Average Number of hTERT Transcripts [1]: 15.04

Cc1ccn2c(-c3csc(Nc4ccc(C(=O)O)cc4)n3)c(C)nc2c1 [compound 1320]
Average Cell Viability after 24 Hours (% DMSO) (viable cells in culture): 90.39 % DMSO | Average Number of hTERT Transcripts [1]: 8.00

COC(=O)C1=C(C)Nc2nnnn2C1c1ccccc1OC (centres unmarked) [compound 1321]
Average Cell Viability after 24 Hours (% DMSO) (viable cells in culture): 124.73 % DMSO | Average Number of hTERT Transcripts [1]: 22.30

COc1ccc(-c2cc3ccccn3c2C)cc1 [compound 1322]
Average Cell Viability after 24 Hours (% DMSO) (viable cells in culture): 81.69 % DMSO | Average Number of hTERT Transcripts [1]: 20.10

Cc1ccc(S(=O)(=O)NC(=O)c2ccccc2O)cc1 [compound 1323]
Average Cell Viability after 24 Hours (% DMSO) (viable cells in culture): 121.47 % DMSO | Average Number of hTERT Transcripts [1]: 11.00

O=C1c2oc3ccccc3c(=O)c2C(c2cccc(OCc3ccccc3)c2)N1c1nccs1 (centres unmarked) [compound 1324]
Average Cell Viability after 24 Hours (% DMSO) (viable cells in culture): 57.19 % DMSO | Average Number of hTERT Transcripts [1]: 8.42

CCn1ncc([N+](=O)[O-])c1C(=O)Nc1sc2c(c1C#N)CCCCCC2 [compound 1325]
Average Cell Viability after 24 Hours (% DMSO) (viable cells in culture): 94.20 % DMSO | Average Number of hTERT Transcripts [1]: 29.36

Source: patent US12404304B1, “Telomerase reverse transcriptase (TERT) expression enhancing compounds and methods for using the same” (Sierra Sciences, LLC, priority 2007, dated 2025)
